The assay deals with T1, Human complement C1s enzyme (Homo sapiens, UniProt P09871).
T1 sequence (P09871 438-688 limits assumed): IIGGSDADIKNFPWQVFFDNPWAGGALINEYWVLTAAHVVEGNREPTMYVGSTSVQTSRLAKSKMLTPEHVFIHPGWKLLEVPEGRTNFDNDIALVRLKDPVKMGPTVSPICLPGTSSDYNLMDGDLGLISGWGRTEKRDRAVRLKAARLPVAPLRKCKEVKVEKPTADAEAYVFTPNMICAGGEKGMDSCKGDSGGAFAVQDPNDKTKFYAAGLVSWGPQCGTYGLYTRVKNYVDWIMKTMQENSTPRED
T1 sequence (P09871 16-437 partner limits assumed): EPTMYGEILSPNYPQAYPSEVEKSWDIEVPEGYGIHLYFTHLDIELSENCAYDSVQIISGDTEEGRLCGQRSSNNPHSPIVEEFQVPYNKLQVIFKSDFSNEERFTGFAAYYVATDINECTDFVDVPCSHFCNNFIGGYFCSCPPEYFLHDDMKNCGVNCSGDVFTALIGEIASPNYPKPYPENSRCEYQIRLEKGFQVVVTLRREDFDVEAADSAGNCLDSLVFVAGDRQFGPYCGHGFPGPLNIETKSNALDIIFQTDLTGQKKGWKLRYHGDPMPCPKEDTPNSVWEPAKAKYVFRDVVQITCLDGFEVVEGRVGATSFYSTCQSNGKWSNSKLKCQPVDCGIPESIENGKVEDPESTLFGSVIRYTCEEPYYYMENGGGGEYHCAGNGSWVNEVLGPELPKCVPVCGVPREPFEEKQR
As to the kind of experiment: Human C1s enzyme assay. It is filed as biochemical. As to conditions: human complement C1s enzyme 1.16 nM, substrate Z-L-Lys-SBzl 100 μM, 5 min preincubation; read-out: IC50 (Stars), C1s Inhibiting Activity. Put shortly:
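Serum-purified human C1s (1.16 nM final) preincubated 5 min at room temperature with compound in 50 mM Tris, 1 M NaCl, pH 7.5. Z-L-Lys-SBzl and DTNB added at 100 μM each; A405 followed every 30 s for 30 min, and IC50 obtained by nonlinear regression of reaction rates.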

Molecules are shown by their SMILES. Bounds are passed on as bounds.

One may read the IC50 as the concentration needed to halve the response being measured.

Regarding `C[C@@H](NC(=O)[C@@H]1C[C@](F)(CF)CN1C(=O)CNC(=O)c1ccc(-c2ccccc2)cc1)c1cc2cnccc2[nH]1` [Compound 84, (2S,4R)-N-((R)-1-(1H-pyrrolo[3,2-c]pyridin-2-yl)ethyl)-1-(([1,1′-biphenyl]-4-carbonyl)glycyl)-4-fluoro-4-(fluoromethyl)pyrrolidine-2-carboxamide], the concentration for half-maximal inhibition (IC50) is greater than 1000 nM.

Take `C[C@@H](NC(=O)[C@@H]1C[C@@H](S(C)(=O)=O)CN1C(=O)CNC(=O)c1ccc(-c2ccc(F)cc2F)cc1)c1cc2cnccc2[nH]1` [Compound 85, (2S,4R)-N-((R)-1-(1H-pyrrolo[3,2-c]pyridin-2-yl)ethyl)-1-((2′,4′-difluoro-[1,1′-biphenyl]-4-carbonyl)glycyl)-4-(methylsulfonyl)pyrrolidine-2-carboxamide]: the IC50 is greater than 1000 nM.

Consider `C[C@@H](NC(=O)[C@@H]1C[C@](F)(CF)CN1C(=O)CNC(=O)c1ccc2c(c1)-c1ccccc1C2(F)F)c1cc2cnccc2[nH]1` [Compound 86, (2S,4R)-N-((R)-1-(1H-pyrrolo[3,2-c]pyridin-2-yl)ethyl)-1-((9,9-difluoro-9H-fluorene-3-carbonyl)glycyl)-4-fluoro-4-(fluoromethyl)pyrrolidine-2-carboxamide], for which the IC50 was 100 to 1000 nM. Next, `C[C@@H](NC(=O)[C@@H]1C[C@@H](S(C)(=O)=O)CN1C(=O)CNC(=O)c1ccc(Oc2ccc(F)cc2)cc1)c1cc2cnccc2[nH]1` [Compound 87, (2S,4R)-N-((R)-1-(1H-pyrrolo[3,2-c]pyridin-2-yl)ethyl)-1-((4-(4-fluorophenoxy)benzoyl)glycyl)-4-(methylsulfonyl)pyrrolidine-2-carboxamide]: 100 to 1000 nM; `C[C@@H](NC(=O)[C@@H]1C[C@](F)(CF)CN1C(=O)CNC(=O)c1ccc(Oc2ccc(F)cc2)cc1)c1cc2cnccc2[nH]1` [Compound 89, (2S,4R)-N-((R)-1-(1H-pyrrolo[3,2-c]pyridin-2-yl)ethyl)-4-fluoro-4-(fluoromethyl)-1-((4-(4-fluorophenoxy)benzoyl)glycyl)pyrrolidine-2-carboxamide]: greater than 1000 nM; `C[C@@H](NC(=O)[C@@H]1C[C@@H](OC(F)F)CN1C(=O)CNC(=O)c1ccc(-c2ccc(F)cc2F)cc1)c1cc2cnccc2[nH]1` [Compound 90, (2S,4R)-N-((R)-1-(1H-pyrrolo[3,2-c]pyridin-2-yl)ethyl)-1-((2′,4′′-difluoro-[1,1′-biphenyl]-4-carbonyl)glycyl)-4-(difluoromethoxy)pyrrolidine-2-carboxamide]: less than 100 nM. The value for `C[C@@H](NC(=O)[C@@H]1C[C@@H](OC(F)F)CN1C(=O)CN1Cc2cc(-c3ccc(F)cc3F)ccc2C1=O)c1cc2cnccc2[nH]1` [Compound 91, (2S,4R)-N-((R)-1-(1H-pyrrolo[3,2-c]pyridin-2-yl)ethyl)-4-(difluoromethoxy)-1-(2-(5-(2,4-difluorophenyl)-1-oxoisoindolin-2-yl)acetyl)pyrrolidine-2-carboxamide] was less than 100 nM. For `O=C(NCC(=O)N1C[C@H](OC(F)F)C[C@H]1C(=O)N[C@H](CO)c1cc2cnccc2[nH]1)c1ccc2c(c1)Oc1ccccc1S2` [Compound 93, (2S,4R)-4-(difluoromethoxy)-N-((S)-2-hydroxy-1-(1H-pyrrolo[3,2-c]pyridin-2-yl)ethyl)-1-((phenoxathiine-3-carbonyl)glycyl)pyrrolidine-2-carboxamide], the IC50 is less than 100 nM.

Consider `O=C(NCC(=O)N1CC2(C[C@H]1C(=O)N[C@H](CO)c1cc3cnccc3[nH]1)OCCO2)c1ccc(Oc2ccc(F)cc2)cc1` [Compound 94, (S)-7-((4-(4-fluorophenoxy)benzoyl)glycyl)-N-((S)-2-hydroxy-1-(1H-pyrrolo[3,2-c]pyridin-2-yl)ethyl)-1,4-dioxa-7-azaspiro[4.4]nonane-8-carboxamide], for which the IC50 was greater than 1000 nM. With `O=C(NCC(=O)N1C[C@@](F)(CF)C[C@H]1C(=O)N[C@H](CO)c1cc2cnccc2[nH]1)c1ccc(Oc2ccc(F)cc2)cc1` [Compound 95, (2S,4R)-4-fluoro-4-(fluoromethyl)-1-((4-(4-fluorophenoxy)benzoyl)glycyl)-N-((S)-2-hydroxy-1-(1H-pyrrolo[3,2-c]pyridin-2-yl)ethyl)pyrrolidine-2-carboxamide], the IC50 is greater than 1000 nM. For the compound `CS(=O)(=O)[C@@H]1C[C@@H](C(=O)N[C@H](CO)c2cc3cnccc3[nH]2)N(C(=O)CNC(=O)c2ccc(Oc3ccc(F)cc3)cc2)C1` [Compound 96, (2S,4R)-1-((4-(4-fluorophenoxy)benzoyl)glycyl)-N-((S)-2-hydroxy-1-(1H-pyrrolo[3,2-c]pyridin-2-yl)ethyl)-4-(methylsulfonyl) pyrrolidine-2-carboxamide], the IC50 was greater than 1000 nM. In the case of `COC[C@@]1(F)C[C@@H](C(=O)N[C@H](CO)c2cc3cnccc3[nH]2)N(C(=O)CNC(=O)c2ccc(Oc3ccc(F)cc3)cc2)C1` [Compound 97, (2S,4R)-4-fluoro-1-((4-(4-fluorophenoxy)benzoyl)glycyl)-N-((S)-2-hydroxy-1-(1H-pyrrolo[3,2-c]pyridin-2-yl)ethyl)-4-(methoxymethyl) pyrrolidine-2-carboxamide], the half-maximal inhibitory concentration (IC50) was greater than 1000 nM. In the case of `O=C(NCC(=O)N1C[C@H](OC(F)F)C[C@H]1C(=O)N[C@H](CO)c1cc2cnccc2[nH]1)c1ccc(Oc2ccc(F)cc2)cc1` [Compound 98, (2S,4R)-4-(difluoromethoxy)-1-((4-(4-fluorophenoxy)benzoyl)glycyl)-N-((S)-2-hydroxy-1-(1H-pyrrolo[3,2-c]pyridin-2-yl)ethyl)pyrrolidine-2-carboxamide], the concentration for half-maximal inhibition (IC50) was in the range of 100 to 1000 nM. On to `CS(=O)(=O)[C@@H]1C[C@@H](C(=O)N[C@H](CO)c2cc3cnccc3[nH]2)N(C(=O)CNC(=O)c2ccc3c(c2)Oc2ccccc2S3)C1` [Compound 99, (2S,4R)-N-((S)-2-hydroxy-1-(1H-pyrrolo[3,2-c]pyridin-2-yl)ethyl)-4-(methylsulfonyl)-1-((phenoxathiine-3-carbonyl)glycyl) pyrrolidine-2-carboxamide], for which the half-inhibitory concentration (IC50) is less than 100 nM. Turning to `C[C@@H](NC(=O)[C@@H]1C[C@@H](OC(F)F)CN1C(=O)CN1Cc2cc(Br)ccc2C1=O)c1cc2cnccc2[nH]1` [Compound 100, (2S,4R)-N-((R)-1-(1H-pyrrolo[3,2-c]pyridin-2-yl)ethyl)-1-(2-(5-bromo-1-oxoisoindolin-2-yl)acetyl)-4-(difluoromethoxy)pyrrolidine-2-carboxamide], the half-inhibitory concentration (IC50) lay within 100 to 1000 nM. For the compound `C[C@@H](NC(=O)[C@@H]1C[C@@H](OC(F)F)CN1C(=O)CN1Cc2cc(-c3ccc(F)cc3)ccc2C1=O)c1cc2cnccc2[nH]1` [Compound 101, (2S,4R)-N-((R)-1-(1H-pyrrolo[3,2-c]pyridin-2-yl)ethyl)-4-(difluoromethoxy)-1-(2-(5-(4-fluorophenyl)-1-oxoisoindolin-2-yl)acetyl)pyrrolidine-2-carboxamide], the IC50 was less than 100 nM.

Regarding `O=C(NCC(=O)N1C[C@H](OC(F)F)C[C@H]1C(=O)N[C@H](CO)c1cc2cnccc2[nH]1)c1ccc2c(c1)-c1ccccc1C2(F)F` [Compound 103, (2S,4R)-1-((9,9-difluoro-9H-fluorene-3-carbonyl)glycyl)-4-(difluoromethoxy)-N-((S)-2-hydroxy-1-(1H-pyrrolo[3,2-c]pyridin-2-yl)ethyl) pyrrolidine-2-carboxamide], the IC50 is 100 to 1000 nM. Regarding `CS(=O)(=O)[C@@H]1C[C@@H](C(=O)N[C@H](CO)c2cc3cnccc3[nH]2)N(C(=O)CNC(=O)c2ccc3c(c2)-c2ccccc2C3(F)F)C1` [Compound 104, (2S,4R)-1-((9,9-difluoro-9H-fluorene-3-carbonyl)glycyl)-N-((S)-2-hydroxy-1-(1H-pyrrolo[3,2-c]pyridin-2-yl)ethyl)-4-(methylsulfonyl) pyrrolidine-2-carboxamide], the concentration for half-maximal inhibition (IC50) is 100 to 1000 nM. On to `Cc1ccc(-c2ccc3c(c2)CN(CC(=O)N2C[C@H](OC(F)F)C[C@H]2C(=O)N[C@H](C)c2cc4cnccc4[nH]2)C3=O)cc1` [Compound 105, (2S,4R)-N-((R)-1-(1H-pyrrolo[3,2-c]pyridin-2-yl)ethyl)-4-(difluoromethoxy)-1-(2-(1-oxo-5-(p-tolyl)isoindolin-2-yl)acetyl)pyrrolidine-2-carboxamide], for which the half-maximal inhibitory concentration (IC50) was less than 100 nM. As for `Cc1ccc(-c2ccc3c(c2)CN(CC(=O)N2C[C@H](OC(F)F)C[C@H]2C(=O)N[C@H](C)c2cc4cnccc4[nH]2)C3=O)c(C)c1` [Compound 106, (2S,4R)-N-((R)-1-(1H-pyrrolo[3,2-c]pyridin-2-yl)ethyl)-4-(difluoromethoxy)-1-(2-(5-(2,4-dimethylphenyl)-1-oxoisoindolin-2-yl)acetyl)pyrrolidine-2-carboxamide], the IC50 was less than 100 nM. Turning to `O=C(NCC(=O)N1CC2(C[C@H]1C(=O)NCc1cc3cnccc3[nH]1)OCCO2)c1ccc(-c2ccccc2)cn1` [Compound 107, (S)-N-((1H-pyrrolo[3,2-c]pyridin-2-yl)methyl)-7-((5-phenylpicolinoyl)glycyl)-1,4-dioxa-7-azaspiro[4.4]nonane-8-carboxamide], the IC50 is less than 100 nM.

Values taken from patent US20260062443A1 (ALEXION PHARMACEUTICALS, INC., priority 2022, published 2026).
